These results are taken from patent US20230218255A1, “IMAGING OF MYELOMA BONE LESIONS” (Blue Earth Diagnostics Limited, priority 2022, published 2023).

The test system of this series is myeloma bone lesion. The experiment in a line: [^18F]-FACBC PET and fused PET/CT imaging of the lumbar vertebrae. It is filed as in vivo. The conditions noted are these: coronal PET and PET/CT of lumbar vertebrae; PET acquisition started 5 minutes after administration of 319 MBq. How it is done: In an exemplary method, lesion [^18F]-FACBC uptake is visually compared to [^18F]-FACBC activity in the bone marrow. [^18F]-FACBC uptake higher than the bone marrow is considered as suspicious for myeloma. [^18F]-FACBC uptake similar or less than the bone marrow is considered as non-suspicious for myeloma.
FIG. 1: Coronal [^18F]-FACBC PET (left) and fused PET/CT (right) images of the lumbar vertebrae. […] The PET scan acquisition was started 5 minutes after administration of 319 MBq of [^18F]-FACBC.
In an aspect of the present disclosure, there is provided a method of diagnosing myeloma bone lesions in a subject comprising the steps of: • (a) administering a detectable amount of [^18F]-FACBC to the subject; • (b) acquiring one or more positron emission tomography (PET) scan images of the subject for a region of the subject that includes a potential myeloma bone lesion; and • (c) comparing [^18F]-FACBC uptake in the potential lesion against [^18F]-FACBC uptake in the bone marrow of the region of the subject; wherein lesion [^18F]-FACBC uptake which is higher than bone marrow [^18F]-FACBC uptake is indicative of the presence of myeloma bone lesions.

For the compound `N[C@]1(C(=O)O)C[C@@H](F)C1` [[^18F]-FACBC, anti-1-amino-3-^18F-fluorocyclobutane-1-carboxylic acid], the “[^18F]-FACBC uptake in area diagnosed as a lesion compared with surrounding bone marrow” value is reported as “higher than the surrounding bone marrow”.
